From ChEMBL document CHEMBL1201862, “PubChem BioAssay data set” (2004)
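Compound exposure: 48 hours, 5 concentrations, 96-well plates. The concentration for 50% growth inhibition is given as GI50.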 The source made the active and inactive calls. Cut-off read from the data, not from the text of the source: active = GI50 up to about 1.1 µM and inactive = higher.

Key:
Assay in all cases: growth of human tumour cells (NCI), 48 h
IGROV-1 = test system: IGROV-1
COLO 205 = test system: COLO 205
KM12 = test system: KM12
NCI-H23 = test system: NCI-H23
786-0 = test system: 786-0
SN12C = test system: SN12C
HT-29 = test system: HT-29
MDA-N = test system: MDA-N
HOP-62 = test system: HOP-62
BT-549 = test system: BT-549
HL-60 = test system: HL-60
SK-MEL-5 = test system: SK-MEL-5
SW-620 = test system: SW-620
OVCAR-8 = test system: OVCAR-8
NCI-H460 = test system: NCI-H460
HCC 2998 = test system: HCC 2998
OVCAR-3 = test system: OVCAR-3
Hs-578T = test system: Hs-578T
HCT-15 = test system: HCT-15
SF-268 = test system: SF-268
SR = test system: SR
Malme-3M = test system: Malme-3M
SF-539 = test system: SF-539
UO-31 = test system: UO-31
NCI/ADR-RES = test system: NCI/ADR-RES
A549 = test system: A549
SK-MEL-2 = test system: SK-MEL-2
SNB-75 = test system: SNB-75
CAKI-1 = test system: CAKI-1
OVCAR-5 = test system: OVCAR-5
SNB-19 = test system: SNB-19
UACC-257 = test system: UACC-257
NCI-H226 = test system: NCI-H226
M14 = test system: M14
SK-OV-3 = test system: SK-OV-3
MOLT-4 = test system: MOLT-4
T47D = test system: T47D
U-251 = test system: U-251
SF-295 = test system: SF-295
CCRF-CEM = test system: CCRF-CEM
UACC-62 = test system: UACC-62
DU-145 = test system: DU-145
A498 = test system: A498
ACHN = test system: ACHN
NCI-H522 = test system: NCI-H522
MCF7 = test system: MCF7
HCT-116 = test system: HCT-116
MDA-MB-435 = test system: MDA-MB-435
PC-3 = test system: PC-3
K562 = test system: K562
EKVX = test system: EKVX
RPMI-8226 = test system: RPMI-8226
SK-MEL-28 = test system: SK-MEL-28
OVCAR-4 = test system: OVCAR-4
LOX IMVI = test system: LOX IMVI
HOP-92 = test system: HOP-92
MDA-MB-231 = test system: MDA-MB-231
TK-10 = test system: TK-10
RXF 393 = test system: RXF 393

In the case of `O=C(O)c1cc(CCc2ccc(O)c(O)c2)ccc1O`, the GI50 (IGROV-1) is reported as > 100 µM (inactive), the GI50 (COLO 205) is reported as > 100 µM (inactive) and the GI50 (KM12) is reported as > 100 µM (inactive). The GI50 (NCI-H23) was > 100 µM (inactive), the GI50 (786-0) was > 100 µM (inactive) and the GI50 (SN12C) was > 100 µM (inactive). For the same compound, the GI50 (HT-29) was > 100 µM (inactive), the GI50 (MDA-N) was 18.4 µM (inactive) and the GI50 (HOP-62) was > 100 µM (inactive). The GI50 (BT-549) was > 100 µM (inactive), the GI50 (HL-60) was 23.2 µM (inactive) and the GI50 (SK-MEL-5) was > 100 µM (inactive). The GI50 (SW-620) was > 100 µM (inactive), the GI50 (OVCAR-8) was > 100 µM (inactive) and the GI50 (NCI-H460) was > 100 µM (inactive). The GI50 (HCC 2998) was > 100 µM (inactive), the GI50 (OVCAR-3) was > 100 µM (inactive) and the GI50 (Hs-578T) was > 100 µM (inactive). The GI50 (HCT-15) was over 100 µM, the GI50 (SF-268) was > 100 µM (inactive) and the GI50 (SR) was 24.4 µM (inactive). The GI50 (Malme-3M) was > 100 µM (inactive), the GI50 (SF-539) was > 100 µM (inactive) and the GI50 (UO-31) was > 100 µM (inactive). The GI50 (NCI/ADR-RES) was > 100 µM (inactive), the GI50 (A549) was > 100 µM (inactive) and the GI50 (SK-MEL-2) was > 100 µM (inactive). For the same compound, the GI50 (SNB-75) was > 100 µM (inactive), the GI50 (CAKI-1) was > 100 µM (inactive) and the GI50 (OVCAR-5) was > 100 µM (inactive). For the same compound, the GI50 (SNB-19) was > 100 µM (inactive), the GI50 (UACC-257) was > 100 µM (inactive) and the GI50 (NCI-H226) was > 100 µM (inactive). The GI50 (M14) was > 100 µM (inactive), the GI50 (SK-OV-3) was > 100 µM (inactive) and the GI50 (MOLT-4) was > 100 µM (inactive). For the same compound, the GI50 (T47D) was > 100 µM (inactive), the GI50 (U-251) was > 100 µM (inactive) and the GI50 (SF-295) was > 100 µM (inactive). The GI50 (CCRF-CEM) was > 100 µM (inactive), the GI50 (UACC-62) was > 100 µM (inactive) and the GI50 (DU-145) was > 100 µM (inactive). The GI50 (A498) was > 100 µM (inactive), the GI50 (ACHN) was > 100 µM (inactive) and the GI50 (NCI-H522) was > 100 µM (inactive). The GI50 (MCF7) was > 100 µM (inactive), the GI50 (HCT-116) was > 100 µM (inactive) and the GI50 (MDA-MB-435) was > 100 µM (inactive). The GI50 (PC-3) was > 100 µM (inactive) and the GI50 (K562) was 21.3 µM (inactive).
`O=[N+]([O-])/C(C(Cl)=C(Cl)Cl)=C(/Nc1cccc2cccnc12)n1nnc2ccccc21` was tested, and the GI50 (COLO 205) was 17.3 µM (inactive), the GI50 (KM12) was 16 µM (inactive) and the GI50 (NCI-H23) was 15.5 µM (inactive). The GI50 (786-0) was 14.3 µM (inactive), the GI50 (SN12C) was 16.3 µM (inactive) and the GI50 (HT-29) was 17.7 µM (inactive). The GI50 (MDA-N) was 13.9 µM (inactive), the GI50 (HOP-62) was 19.2 µM (inactive) and the GI50 (BT-549) was 14.2 µM (inactive). The GI50 (SW-620) was 15.8 µM (inactive), the GI50 (OVCAR-8) was 13.8 µM (inactive) and the GI50 (NCI-H460) was 31.3 µM (inactive). The GI50 (HCC 2998) was 44.1 µM (inactive), the GI50 (OVCAR-3) was 8.18 µM (inactive) and the GI50 (EKVX) was 24.4 µM (inactive). The GI50 (Hs-578T) was 11.9 µM (inactive), the GI50 (HCT-15) was 10.8 µM and the GI50 (SF-268) was 16.5 µM (inactive). The GI50 (Malme-3M) was 6.85 µM (inactive), the GI50 (SF-539) was 13.4 µM (inactive) and the GI50 (UO-31) was 15.8 µM (inactive). The GI50 (NCI/ADR-RES) was 21.8 µM (inactive), the GI50 (RPMI-8226) was 24.5 µM (inactive) and the GI50 (A549) was 27.3 µM (inactive). The GI50 (SK-MEL-2) was 15.3 µM (inactive), the GI50 (SNB-75) was 19.4 µM (inactive) and the GI50 (CAKI-1) was 13.5 µM (inactive). The GI50 (OVCAR-5) was 21.6 µM (inactive), the GI50 (SNB-19) was 16.9 µM (inactive) and the GI50 (UACC-257) was 30.3 µM (inactive). For the same compound, the GI50 (NCI-H226) was 23.2 µM (inactive), the GI50 (M14) was 12.2 µM (inactive) and the GI50 (SK-OV-3) was 15.9 µM (inactive). The GI50 (SK-MEL-28) was 18.4 µM (inactive), the GI50 (MOLT-4) was 3.57 µM (inactive) and the GI50 (T47D) was 19 µM (inactive). The GI50 (OVCAR-4) was 17.2 µM (inactive), the GI50 (SF-295) was 17.9 µM (inactive) and the GI50 (CCRF-CEM) was 2.88 µM (inactive). The GI50 (ACHN) was 19.7 µM (inactive), the GI50 (MCF7) was 19.6 µM (inactive) and the GI50 (HCT-116) was 19.3 µM (inactive). The GI50 (MDA-MB-435) was 15.9 µM (inactive), the GI50 (PC-3) was 19.2 µM (inactive) and the GI50 (K562) was 6.41 µM (inactive).
For `Cc1cc2ncn(C3CCCCO3)c2cc1C` (stereo unspecified), the GI50 (IGROV-1) was > 100 µM (inactive), the GI50 (COLO 205) was > 100 µM (inactive) and the GI50 (KM12) was 35.5 µM (inactive). For the same compound, the GI50 (NCI-H23) was 50.2 µM (inactive), the GI50 (786-0) was > 100 µM (inactive) and the GI50 (SN12C) was > 100 µM (inactive). The GI50 (HT-29) was > 100 µM (inactive), the GI50 (MDA-N) was > 100 µM (inactive) and the GI50 (HOP-62) was > 100 µM (inactive). For the same compound, the GI50 (BT-549) was > 100 µM (inactive), the GI50 (HL-60) was > 100 µM (inactive) and the GI50 (SK-MEL-5) was > 100 µM (inactive). For the same compound, the GI50 (SW-620) was > 100 µM (inactive), the GI50 (OVCAR-8) was > 100 µM (inactive) and the GI50 (HCC 2998) was > 100 µM (inactive). The GI50 (OVCAR-3) was > 100 µM (inactive), the GI50 (EKVX) was > 100 µM (inactive) and the GI50 (LOX IMVI) was 62.5 µM (inactive). For the same compound, the GI50 (Hs-578T) was > 100 µM (inactive), the GI50 (HCT-15) was over 100 µM and the GI50 (SF-268) was > 100 µM (inactive). The GI50 (Malme-3M) was > 100 µM (inactive), the GI50 (SF-539) was > 100 µM (inactive) and the GI50 (UO-31) was 20.2 µM (inactive). For the same compound, the GI50 (NCI/ADR-RES) was > 100 µM (inactive), the GI50 (RPMI-8226) was > 100 µM (inactive) and the GI50 (A549) was > 100 µM (inactive). For the same compound, the GI50 (SK-MEL-2) was > 100 µM (inactive), the GI50 (SNB-75) was > 100 µM (inactive) and the GI50 (CAKI-1) was > 100 µM (inactive). The GI50 (OVCAR-5) was > 100 µM (inactive), the GI50 (SNB-19) was > 100 µM (inactive) and the GI50 (UACC-257) was > 100 µM (inactive). The GI50 (NCI-H226) was > 100 µM (inactive), the GI50 (HOP-92) was > 100 µM (inactive) and the GI50 (M14) was > 100 µM (inactive). For the same compound, the GI50 (SK-OV-3) was > 100 µM (inactive), the GI50 (SK-MEL-28) was > 100 µM (inactive) and the GI50 (MOLT-4) was > 100 µM (inactive). The GI50 (MDA-MB-231) was > 100 µM (inactive), the GI50 (T47D) was > 100 µM (inactive) and the GI50 (OVCAR-4) was > 100 µM (inactive). For the same compound, the GI50 (U-251) was > 100 µM (inactive), the GI50 (TK-10) was > 100 µM (inactive) and the GI50 (SF-295) was > 100 µM (inactive). For the same compound, the GI50 (CCRF-CEM) was > 100 µM (inactive), the GI50 (UACC-62) was > 100 µM (inactive) and the GI50 (DU-145) was > 100 µM (inactive). For the same compound, the GI50 (RXF 393) was > 100 µM (inactive), the GI50 (ACHN) was > 100 µM (inactive) and the GI50 (NCI-H522) was > 100 µM (inactive). For the same compound, the GI50 (MCF7) was > 100 µM (inactive), the GI50 (HCT-116) was > 100 µM (inactive) and the GI50 (MDA-MB-435) was > 100 µM (inactive). The GI50 (PC-3) was > 100 µM (inactive) and the GI50 (K562) was > 100 µM (inactive).
